According to ChEMBL document CHEMBL1687830, “Evaluation of ceftazidime and NXL104 in two murine models of infection due to KPC-producing Klebsiella pneumoniae” (2011):
In brackets after ≈: the same amount, converted by molar mass.

How the values were obtained:
Assay type in all cases: functional
Klebsiella pneumoniae [1] = test: Antimicrobial activity against carbapenemases KPC-producing Klebsiella pneumoniae VA-406 infected in sc dosed CD-1 mouse in presence of 1 ug/ml NXL104 beta-lactamase inhibitor
Klebsiella pneumoniae [2] = test: Antimicrobial activity against carbapenemases KPC-producing Klebsiella pneumoniae VA-361 infected in sc dosed CD-1 mouse in presence of 4 ug/ml NXL104 beta-lactamase inhibitor
Klebsiella pneumoniae [3] = test: Antimicrobial activity against carbapenemases KPC-producing Klebsiella pneumoniae VA-406 infected in sc dosed CD-1 mouse
Klebsiella pneumoniae [4] = test: Antimicrobial activity against carbapenemases KPC-producing Klebsiella pneumoniae VA-361 infected in sc dosed CD-1 mouse in presence of 2 ug/ml NXL104 beta-lactamase inhibitor
Klebsiella pneumoniae [5] = test: Antimicrobial activity against carbapenemases KPC-producing Klebsiella pneumoniae VA-361 infected in sc dosed CD-1 mouse in presence of 1 ug/ml NXL104 beta-lactamase inhibitor
Klebsiella pneumoniae [6] = test: Antimicrobial activity against carbapenemases KPC-producing Klebsiella pneumoniae VA-406 infected in sc dosed CD-1 mouse in presence of 2 ug/ml NXL104 beta-lactamase inhibitor
Klebsiella pneumoniae [7] = test: Antimicrobial activity against carbapenemases KPC-producing Klebsiella pneumoniae VA-361 infected in sc dosed CD-1 mouse in presence of 4 ug/ml cavulanate beta-lactamase inhibitor
Klebsiella pneumoniae [8] = test: Antimicrobial activity against carbapenemases KPC-producing Klebsiella pneumoniae VA-406 infected in sc dosed CD-1 mouse in presence of 4 ug/ml Tazobactam beta-lactamase inhibitor
Klebsiella pneumoniae [9] = test: Antimicrobial activity against carbapenemases KPC-producing Klebsiella pneumoniae VA-406 infected in sc dosed CD-1 mouse in presence of 4 ug/ml cavulanate beta-lactamase inhibitor
Klebsiella pneumoniae [10] = test: Antimicrobial activity against carbapenemases KPC-producing Klebsiella pneumoniae VA-361 infected in sc dosed CD-1 mouse
Klebsiella pneumoniae [11] = test: Antimicrobial activity against carbapenemases KPC-producing Klebsiella pneumoniae VA-406 infected in sc dosed CD-1 mouse in presence of 4 ug/ml NXL104 beta-lactamase inhibitor
Klebsiella pneumoniae [12] = test: Antimicrobial activity against carbapenemases KPC-producing Klebsiella pneumoniae VA-361 infected in sc dosed CD-1 mouse in presence of 4 ug/ml Tazobactam beta-lactamase inhibitor
Klebsiella pneumoniae [13] = test: (§1) Antimicrobial activity against carbapenemases KPC-producing Klebsiella pneumoniae VA-361 infected in CD-1 mouse thigh infection model assessed as change in log10 CFU reduction per thigh treated 1.5 hr post infection at >=32:8 mg/kg, sc compound to NXL104 beta-lactamase inhibitor ratio after 24 hrs by acute lethal septicemia analysis (reference value: 8.93 log10CFU/thigh)
Klebsiella pneumoniae [14] = test: Antimicrobial activity against carbapenemases KPC-producing Klebsiella pneumoniae VA-406 infected in sc dosed CD-1 mouse septicemia infection model at 2:1 compound to NXL104 beta-lactamase inhibitor ratio by acute lethal septicemia analysis; settings: VA-406, sc
Klebsiella pneumoniae [15] = test: Antimicrobial activity against carbapenemases KPC-producing Klebsiella pneumoniae VA-361 infected in sc dosed CD-1 mouse septicemia infection model at 4:1 compound to NXL104 beta-lactamase inhibitor ratio by acute lethal septicemia analysis; settings: VA-361, sc
Klebsiella pneumoniae [16] = test: as §1, with “>=64:16” for “>=32:8”
Klebsiella pneumoniae [17] = test: as §1, with “VA-406” for “VA-361”, “>=1024:256” for “>=32:8”, “8.67” for “8.93”
Klebsiella pneumoniae [18] = test: as §1, with “VA-406” for “VA-361”, “>=64:16” for “>=32:8”, “analysis” for “analysis (reference value: 8.93 log10CFU/thigh)”
Klebsiella pneumoniae [19] = test: Antimicrobial activity against carbapenemases KPC-producing Klebsiella pneumoniae VA-361 infected in sc dosed CD-1 mouse septicemia infection model at 8:1 compound to NXL104 beta-lactamase inhibitor ratio by acute lethal septicemia analysis; settings: VA-361, sc
Klebsiella pneumoniae [20] = test: as §1, with “VA-406” for “VA-361”, “>=256:64” for “>=32:8”, “8.67” for “8.93”
Klebsiella pneumoniae [21] = test: Antimicrobial activity against Klebsiella pneumoniae ATCC 13883 infected in sc dosed CD-1 mouse septicemia infection model at 2:1 compound to NXL104 beta-lactamase inhibitor ratio by acute lethal septicemia analysis; settings: ATCC 13883, sc
Klebsiella pneumoniae [22] = test: Antimicrobial activity against Klebsiella pneumoniae ATCC 13883 infected in sc dosed CD-1 mouse septicemia infection model at 8:1 compound to NXL104 beta-lactamase inhibitor ratio by acute lethal septicemia analysis; settings: ATCC 13883, sc
Klebsiella pneumoniae [23] = test: Antimicrobial activity against carbapenemases KPC-producing Klebsiella pneumoniae VA-361 infected in sc dosed CD-1 mouse septicemia infection model at 16:1 compound to NXL104 beta-lactamase inhibitor ratio by acute lethal septicemia analysis; settings: VA-361, sc
Klebsiella pneumoniae [24] = test: Antimicrobial activity against carbapenemases KPC-producing Klebsiella pneumoniae VA-361 infected in sc dosed CD-1 mouse septicemia infection model at 2:1 compound to NXL104 beta-lactamase inhibitor ratio by acute lethal septicemia analysis; settings: VA-361, sc
Klebsiella pneumoniae [25] = test: as §1, with “VA-406” for “VA-361”, “>=128:32” for “>=32:8”, “8.67” for “8.93”
Klebsiella pneumoniae [26] = test: as §1, with “VA-406” for “VA-361”, “8.67” for “8.93”
Klebsiella pneumoniae [27] = test: Antimicrobial activity against carbapenemases KPC-producing Klebsiella pneumoniae VA-406 infected in sc dosed CD-1 mouse septicemia infection model by acute lethal septicemia analysis; settings: VA-406, sc
Klebsiella pneumoniae [28] = test: Antimicrobial activity against Klebsiella pneumoniae ATCC 13883 infected in sc dosed CD-1 mouse septicemia infection model at 4:1 compound to NXL104 beta-lactamase inhibitor ratio by acute lethal septicemia analysis; settings: ATCC 13883, sc
Klebsiella pneumoniae [29] = test: as §1, with “>=512:128” for “>=32:8”
Klebsiella pneumoniae [30] = test: as §1, with “>=128:32” for “>=32:8”
Klebsiella pneumoniae [31] = test: as §1, with “VA-406” for “VA-361”, “>=512:128” for “>=32:8”, “8.67” for “8.93”
Klebsiella pneumoniae [32] = test: Antimicrobial activity against carbapenemases KPC-producing Klebsiella pneumoniae VA-406 infected in sc dosed CD-1 mouse septicemia infection model at 16:1 compound to NXL104 beta-lactamase inhibitor ratio by acute lethal septicemia analysis; settings: VA-406, sc
Klebsiella pneumoniae [33] = test: Antimicrobial activity against carbapenemases KPC-producing Klebsiella pneumoniae VA-406 infected in sc dosed CD-1 mouse septicemia infection model at 4:1 compound to NXL104 beta-lactamase inhibitor ratio by acute lethal septicemia analysis; settings: VA-406, sc
Klebsiella pneumoniae [34] = test: Antimicrobial activity against carbapenemases KPC-producing Klebsiella pneumoniae VA-406 infected in sc dosed CD-1 mouse septicemia infection model at 8:1 compound to NXL104 beta-lactamase inhibitor ratio by acute lethal septicemia analysis; settings: VA-406, sc
Klebsiella pneumoniae [35] = test: Antimicrobial activity against carbapenemases KPC-producing Klebsiella pneumoniae VA-361 infected in sc dosed CD-1 mouse septicemia infection model by acute lethal septicemia analysis; settings: VA-361, sc
Klebsiella pneumoniae [36] = test: as §1, with “>=256:64” for “>=32:8”
Klebsiella pneumoniae [37] = test: as §1, with “VA-406” for “VA-361”, “>=16:4” for “>=32:8”, “8.67” for “8.93”
Klebsiella pneumoniae [38] = test: Antimicrobial activity against Klebsiella pneumoniae ATCC 13883 infected in sc dosed CD-1 mouse septicemia infection model by acute lethal septicemia analysis; settings: ATCC 13883, sc
Klebsiella pneumoniae [39] = test: as §1, with “VA-406” for “VA-361”, “1024” for “>=32:8”, “sc” for “sc compound to NXL104 beta-lactamase inhibitor ratio”, “8.67” for “8.93”; settings: route subcutaneous
Klebsiella pneumoniae [40] = test: as §1, with “2048” for “>=32:8”, “sc” for “sc compound to NXL104 beta-lactamase inhibitor ratio”; settings: route subcutaneous
Klebsiella pneumoniae [41] = test: as §1, with “VA-406” for “VA-361”, “>=8:2” for “>=32:8”, “8.67” for “8.93”
Klebsiella pneumoniae [42] = test: as §1, with “1024” for “>=32:8”, “sc” for “sc compound to NXL104 beta-lactamase inhibitor ratio”; settings: route subcutaneous
Klebsiella pneumoniae [43] = test: as §1, with “>=1024:256” for “>=32:8”
Klebsiella pneumoniae [44] = test: as §1, with “VA-406” for “VA-361”, “2048” for “>=32:8”, “sc” for “sc compound to NXL104 beta-lactamase inhibitor ratio”, “8.67” for “8.93”; settings: route subcutaneous

CO/N=C(\C(=O)N[C@@H]1C(=O)N2C(C(=O)[O-])=C(C[N+]3(C)CCCC3)CS[C@H]12)c1csc(N)n1 [CEFEPIME]
MIC (Klebsiella pneumoniae [1]): 0.5 µg/mL
MIC (Klebsiella pneumoniae [2]): ≤ 0.06 µg/mL
MIC (Klebsiella pneumoniae [3]): 256 µg/mL (≈ 533 µM)
MIC (Klebsiella pneumoniae [4]): 0.25 µg/mL
MIC (Klebsiella pneumoniae [5]): 0.5 µg/mL
MIC (Klebsiella pneumoniae [6]): 0.5 µg/mL
MIC (Klebsiella pneumoniae [7]): 8 µg/mL
MIC (Klebsiella pneumoniae [8]): 128 µg/mL
MIC (Klebsiella pneumoniae [9]): 128 µg/mL
MIC (Klebsiella pneumoniae [10]): 32 µg/mL (≈ 66.6 µM)
MIC (Klebsiella pneumoniae [11]): 0.125 µg/mL

CO/N=C(\C(=O)N[C@@H]1C(=O)N2C(C(=O)O)=C(COC(C)=O)CS[C@H]12)c1csc(N)n1 [CEFOTAXIME]
MIC (Klebsiella pneumoniae [1]): 0.5 µg/mL
MIC (Klebsiella pneumoniae [2]): 0.125 µg/mL
MIC (Klebsiella pneumoniae [3]): ≥ 512 µg/mL
MIC (Klebsiella pneumoniae [4]): 0.5 µg/mL
MIC (Klebsiella pneumoniae [5]): 0.5 µg/mL
MIC (Klebsiella pneumoniae [6]): 0.5 µg/mL
MIC (Klebsiella pneumoniae [7]): 16 µg/mL
MIC (Klebsiella pneumoniae [12]): 16 µg/mL
MIC (Klebsiella pneumoniae [8]): 256 µg/mL
MIC (Klebsiella pneumoniae [9]): 256 µg/mL
MIC (Klebsiella pneumoniae [10]): 64 µg/mL (≈ 141 µM)
MIC (Klebsiella pneumoniae [11]): 0.125 µg/mL

CC(C)(O/N=C(\C(=O)N[C@@H]1C(=O)N2C(C(=O)[O-])=C(C[n+]3ccccc3)CS[C@H]12)c1csc(N)n1)C(=O)O [CEFTAZIDIME]
MIC (Klebsiella pneumoniae [1]): 8 µg/mL
log10cfu (Klebsiella pneumoniae [13]): 2.32
ED50 (Klebsiella pneumoniae [14]): 3.5 mg/kg
ED50 (Klebsiella pneumoniae [15]): 15.1 mg/kg
log10cfu (Klebsiella pneumoniae [16]): 2.19
log10cfu (Klebsiella pneumoniae [17]): -1.59
log10cfu (Klebsiella pneumoniae [18]): 2.06
ED50 (Klebsiella pneumoniae [19]): 16.9 mg/kg
log10cfu (Klebsiella pneumoniae [20]): -1.02
MIC (Klebsiella pneumoniae [2]): 0.25 µg/mL
ED50 (Klebsiella pneumoniae [21]): 1 mg/kg
ED50 (Klebsiella pneumoniae [22]): 0.62 mg/kg
MIC (Klebsiella pneumoniae [3]): ≥ 512 µg/mL
ED50 (Klebsiella pneumoniae [23]): 29.5 mg/kg
MIC (Klebsiella pneumoniae [4]): 4 µg/mL
MIC (Klebsiella pneumoniae [5]): 8 µg/mL
ED50 (Klebsiella pneumoniae [24]): 8.1 mg/kg
MIC (Klebsiella pneumoniae [6]): 2 µg/mL
log10cfu (Klebsiella pneumoniae [25]): -0.46
MIC (Klebsiella pneumoniae [7]): 128 µg/mL
log10cfu (Klebsiella pneumoniae [26]): 2.33
ED50 (Klebsiella pneumoniae [27]): 709 mg/kg
ED50 (Klebsiella pneumoniae [28]): 1.1 mg/kg
log10cfu (Klebsiella pneumoniae [29]): -1.47
log10cfu (Klebsiella pneumoniae [30]): 1.88
log10cfu (Klebsiella pneumoniae [31]): -1.03
ED50 (Klebsiella pneumoniae [32]): 12.1 mg/kg
MIC (Klebsiella pneumoniae [12]): 128 µg/mL
ED50 (Klebsiella pneumoniae [33]): 3.8 mg/kg
MIC (Klebsiella pneumoniae [8]): 256 µg/mL
MIC (Klebsiella pneumoniae [9]): 256 µg/mL
ED50 (Klebsiella pneumoniae [34]): 7.2 mg/kg
ED50 (Klebsiella pneumoniae [35]): 1580 mg/kg
log10cfu (Klebsiella pneumoniae [36]): -0.85
log10cfu (Klebsiella pneumoniae [37]): 2.69
ED50 (Klebsiella pneumoniae [38]): 1.9 mg/kg
MIC (Klebsiella pneumoniae [10]): 256 µg/mL (≈ 468 µM)
MIC (Klebsiella pneumoniae [11]): ≤ 0.06 µg/mL

C[C@@H](O)[C@H]1C(=O)N2C(C(=O)O)=C(SCCNC=N)C[C@H]12 [IMIPENEM ANHYDROUS]
MIC (Klebsiella pneumoniae [3]): 256 µg/mL (≈ 855 µM)
MIC (Klebsiella pneumoniae [7]): 2 µg/mL
MIC (Klebsiella pneumoniae [12]): 4 µg/mL
MIC (Klebsiella pneumoniae [8]): 256 µg/mL
MIC (Klebsiella pneumoniae [9]): 128 µg/mL
MIC (Klebsiella pneumoniae [10]): 4 µg/mL (≈ 13.4 µM)

C[C@@H](O)[C@H]1C(=O)N2C(C(=O)O)=C(S[C@@H]3CN[C@H](C(=O)N(C)C)C3)[C@H](C)[C@H]12 [MEROPENEM]
MIC (Klebsiella pneumoniae [3]): 256 µg/mL (≈ 668 µM)
MIC (Klebsiella pneumoniae [7]): 2 µg/mL
MIC (Klebsiella pneumoniae [12]): 4 µg/mL
MIC (Klebsiella pneumoniae [8]): 128 µg/mL
MIC (Klebsiella pneumoniae [9]): 128 µg/mL
MIC (Klebsiella pneumoniae [10]): 4 µg/mL (≈ 10.4 µM)

CCN1CCN(C(=O)N[C@@H](C(=O)N[C@@H]2C(=O)N3[C@@H]2SC(C)(C)[C@@H]3C(=O)O)c2ccccc2)C(=O)C1=O [PIPERACILLIN]
MIC (Klebsiella pneumoniae [1]): 16 µg/mL
log10cfu (Klebsiella pneumoniae [39]): 0.25
log10cfu (Klebsiella pneumoniae [40]): -0.34
log10cfu (Klebsiella pneumoniae [41]): 2.93
MIC (Klebsiella pneumoniae [2]): ≤ 0.06 µg/mL
MIC (Klebsiella pneumoniae [3]): ≥ 512 µg/mL
MIC (Klebsiella pneumoniae [4]): 8 µg/mL
log10cfu (Klebsiella pneumoniae [42]): -0.32
log10cfu (Klebsiella pneumoniae [43]): -1.76
MIC (Klebsiella pneumoniae [5]): 32 µg/mL
MIC (Klebsiella pneumoniae [6]): 8 µg/mL
log10cfu (Klebsiella pneumoniae [44]): 0.03
MIC (Klebsiella pneumoniae [12]): ≥ 512 µg/mL
MIC (Klebsiella pneumoniae [8]): ≥ 512 µg/mL
MIC (Klebsiella pneumoniae [10]): ≥ 512 µg/mL
MIC (Klebsiella pneumoniae [11]): 0.5 µg/mL
